The values that follow come from patent publication US10520488B2, “Method and measuring device for determination of the growth rate of biofilm” (Helmholtz-Zentrum fuer Infektionsforschung GmbH, priority 2014, dated 2019).

Common to all, as to assay type: cell-based, Pseudomonas aeruginosa
Experiment [1] relates to PA14 biofilms. Briefly: Crystal violet analysis of PA14 biofilms, absorption at 620 nm. The following applies: added to wild type WT PA14, LB medium, 96-Well-Plate, after 43 hours, compared to WT alone. The protocol:
FIG. 5—Diagram of PA 14 biofilms determined after 43 hours with crystal violet by monitoring absorption at 620 nm;
FIG. 5 is a diagram of various types of PA14 biofilms measured by use of the 96-Well-Plate after 43 hours by use of the fluid culture medium LB with crystal violet analysis by monitoring absorption at 620 nm.

Experiment [2] relates to PA14 biofilms. Briefly: Impedance analysis (xCELLigence cell index) of PA14 biofilm growth rate / biofilm formation. The protocol: The biomass Pseudomonas aeruginosa had been measured as an exemplary biomass. Eventually also other strains can be analyzed. The 96 E-Plate had been used for a measuring time of 43 hours. The fluid culture medium LB had been introduced into the receptacles together with wild type (WT) PA14, ΔpelA deletion mutant or ΔpqsA, respectively.
A significant linear reduction of the negative cell index occurs after about 35 hours and more preferably in the time frame of the 37 hours to 42 hours. Within this time frame of 37 hours to 42 hours, the directional cell index RK=(cell index[t2]−cell index[t1])/(t2−t1) is decreasing. Thus, for such a short time frame, the value of the cell index change provides the directional cell index RK, which corresponds to the linear relation between the capacitance and the reactance having the general form of a straight line. Optionally, and in particular in case of evaluating longer time frames, the growth rate of biofilm can be calculated as function of the natural logarithm of the cell index, e.g. by the formula RK=ln(cell index[t2]−cell index[t1])/(t2−t1).
The impedance method has also been used to study the effect of antibiotics on biofilm formation of P. aeruginosa PA14. The results of the impact of ciprofloxacin (A), tobramycin (B), and meropenem (C) on biofilm formation of PA14 are shown in FIGS. 8 to 10. As examples, the antibiotics ciprofloxacin (FIGS. 8a)-c)), tobramycin (FIGS. 9a)-c)) and meropenem (FIGS. 10a)-c)) have been tested. All three antibiotics changed the impedance curves in a concentration-dependent manner, indicating effects on biofilm formation.
The effect on impedance was quantified by three parameters at varying antibiotic concentrations:
The first parameter is the time of onset of a linear decrease of the cell index, (FIGS. 8a), 9a) and 10a)).
The second parameter is the duration of a linear decrease of the cell index. This duration was determined by a linear trendline that was fitted to the data with an r^2 value of 0.97 or higher. In the graphs of FIGS. 8a), 9a) and 10a), the black vertical bars represent the time period over which the biofilm formation rate was measured to be steady, based on a straight line assigned with an r^2 of at least 0.97 (n=3 or 4).
The third parameter was the cell index slope during that time period (FIGS. 8b), 9b) and 10b)). These graphs show the concentration dependency of the biofilm formation expressed in the slope/h of the cell index (n=3 or 4).

A further experiment relates to PA14. Kind of experiment: Planktonic growth curves of PA14 by OD600 (control experiment).

Structures are written as SMILES.

Turning to `N=C(N)NCCC[C@H](N)C(=O)O` [L-Arg, arginine], the “growth of biofilm (crystal violet)” value in the experiment on PA14 biofilms [1] was “inhibits the growth of biofilm”. For the same compound, the “directional cell index RK” value with PA14 biofilms [2] (0.4% or 0.8% L-Arg added to wild type WT, evaluation time 37 to 42 hours) is on record as “about −0.004 /h”. Also, the “reduction of the biofilm growth rate” value in the experiment with PA14 biofilms [2] (0.4% or 0.8% L-Arg, PA14 WT, LB, evaluation time 37 to 42 hours) is “about ½”.

With `O=C(O)c1cn(C2CC2)c2cc(N3CCNCC3)c(F)cc2c1=O` [ciprofloxacin], the “impedance curve reflecting biofilm formation” value with PA14 biofilms [2] (0.13 μg/mL) is “clearly changed the impedance curve”. For the same compound, the steady biofilm formation entry in the experiment on PA14 biofilms [2] (0.25 μg/mL) was “not observed anymore”. Besides, the “cell index slope (biofilm formation)” value in the experiment with PA14 biofilms [2] (at increasing concentrations) is given as “shallower decline”. The planktonic growth entry is “not impaired” in the experiment on PA14 (0.13 μg/mL) and “still possible” in the experiment on PA14 (0.25 μg/mL).

On to `C[C@@H](O)[C@H]1C(=O)N2C(C(=O)O)=C(S[C@@H]3CN[C@H](C(=O)N(C)C)C3)[C@H](C)[C@H]12` [meropenem], for which, in the experiment on PA14 biofilms [2] (0.5 μg/ml), the “induction of biofilm formation (cell index slope)” value was “this effect vanished”. Further, the “cell index slope (biofilm formation)” value in the experiment with PA14 biofilms [2] (concentrations between 0.063 and 0.25 μg/ml) is recorded as “induced biofilm formation”.

As to `NC[C@H]1O[C@H](O[C@H]2[C@H](O)[C@@H](O[C@H]3O[C@H](CO)[C@@H](O)[C@H](N)[C@H]3O)[C@H](N)C[C@@H]2N)[C@H](N)C[C@@H]1O` [tobramycin], in the experiment on PA14 biofilms [2] (at increasing concentrations), the “cell index slope (biofilm formation)” value is listed as “shallower decline”.
